According to patent publication EP4299131A1, “HYDROPHILIC PHENALENONES AND THEIR USE IN ANTIMICROBIAL PHOTODYNAMIC THERAPY” (Centre national de la recherche scientifique, priority 2022, dated 2024):
Read-outs that look alike come from different tables or passages of the source.

How the values were obtained:
[1] = tested on: Staphylococcus aureus CIP76.25; assay: Antibacterial photodynamic inactivation, MIC/MBC by micromethod in 96-well plates; format: cell-based
Protocol: (§1) To evaluate the biological activity of the molecules, the minimal inhibitory concentration (MIC) and the minimal bactericidal concentration (MBC) were determined on bacterial cultures (Staphylococcus aureus CIP76.25, Pseudomonas aeruginosa CIP76.110) by micromethod in 96-well plates. Briefly, bacterial cultures in log-phase were diluted in sterile PBS 1X at a concentration equivalent to 4×10^6 UFC/mL. Serial dilutions of different molecules were performed in PBS 1X to a final concentration from 200 to 1.5 µM and 50 µl of each dilution were added in the microplate wells. Then, 50 µl of diluted bacterial culture were added in each well. Two different plates for each strain were prepared: one plate for the dark condition and a second plate for light irradiation.
(§2) Two controls were included; a bacterial growth control with no molecule added and a negative control with PBS without bacterial inoculum and no molecules.
(§3) The microplate was incubated at 37°C for 1h in dark condition. After that, bacteria were irradiated with LED white light (total fluence: 25J/cm^2). During the time of irradiation, the second plate was maintained in the dark. Then, 100 µL of 2-fold concentrated TS broth were added in each well and the microplate was incubated at 37°C for 24h. The MIC values were determined as the lowest concentration without observed bacterial growth. For determination of the MBC, 100 µl from wells where no evident growth was observed were diluted in physiological water (NaCl 0.9%). All 10-fold serial dilutions were spread on TS agar plates using an automatic plater (easySPIRAL®, Interscience, Saint-Nom La Bretêche, France). After incubation at 37 °C for 24 h, colonies were counted to determine total CFU per mL (CFU/mL). The MBC corresponds to the concentration of the active compound for which 99.99% of the bacteria have been killed (i.e. 4 log reduction compared to the untreated control). Three independent experiments were performed with each strain.

[2] = tested on: Pseudomonas aeruginosa CIP76.110; assay: as above; format: cell-based; details: for MBC / MIC: Pseudomonas aeruginosa
Protocol: as §1, §2, §3

[3] = Singlet oxygen quantum yield by chemical trapping with ADPA; format: physicochemical; details: D2O (470 nm); ADPA as chemical probe, Eosin Y as reference
Protocol: Chemical trapping experiments: Quantum yields of singlet oxygen produced by 1a-c was evaluated by monitoring the UV/Visible absorption change in an Agilent 8453 Diode-Array spectrophotometer of 3,3'-anthracene-9,10-diyldipropanoic acid (ADPA) which is a well-known singlet oxygen trap. […] A solution of 1a-c in deuterated water (A473nm = 0.06) was prepared and an aliquot of ADPA in deuterated water was added to reach A378nm = 0.74. The photoabsorption spectral change of ADPA solution with photosensitizers 1a-c was monitored following the decrease of the band at 382 nm. Plots of Ln(A/A0) vs. time (s) give linear graphs for which the slope is the experimental kinetic rate constant (k, s^-1) (Ao is the initial absorption intensity and A is the absorption intensity at the time t). From comparison of experimental rate constants between phenalenone derivatives 1a-c and two selected actinometers (Eosin Y and Riboflavin, see supporting information for results using Riboflavin) using optically-matched solutions, singlet oxygen quantum yields of the photosensitizers ΦΔ can be determined from the following equation: φΔ = (k)/(kref) × φΔ,ref [formula]

[4] = UV/Visible and fluorescence spectroscopy, fluorescence lifetime (TCSPC); format: physicochemical; details: for ΦF (fluorescence quantum yield): 6-ethoxyphenalenone as actinometer; for ε: at the longest-wavelength absorption maximum; for λmax(em): excited at 400 nm
Protocol: UV/Visible and fluorescence spectroscopy: UV-Vis spectra were recorded on an Agilent 8453 Diode-Array spectrophotometer in the range of 250-700 nm. Emission spectra were measured in an ISS PC1 spectrofluorometer at room temperature. Fluorescence quantum yields were determined using equation (1) and 6-ethoxy-phenalenone in methanol as reference. ΦF,sample = ΦF,reference (Areference)/(Asample)(Isample)/(Ireference)(((ηsample)/(ηreference)))^2 [formula] ΦF is the fluorescence quantum yields. A: is the absorbance in the wavelength of excitation, I correspond to area of the emission spectra and η is the refractive index of the solvent. The excitation wavelength was 400 nm for all steady state fluorescence experiments.
Luminescence lifetime measurements were carried out using a PicoQuant FluoTime 200 fluorescence lifetime spectrometer with a multichannel scaler (PicoQuant's Timeharp 250) with the time correlated single photon counting (TCSPC) method. As excitation resource laser 405 nm was employed.

[5] = Singlet oxygen quantum yield by 1O2 phosphorescence at 1270 nm; format: physicochemical; details: phosphorescence method
Protocol: Singlet oxygen quantum yield measurements: Lifetime decays of singlet oxygen, O2(^1Δg), were acquired with a FluoTime 200 equipped with multichannel scaler Nanoharp 200. […] For the detection at 1270 nm a NIR PMT H10330A (Hamamatsu) was employed. The O2(^1Δg) quantum yields (ΦΔ) were determined by comparing the intensity at zero time of the 1270 nm signals to those of optically-matched solutions of SAPYR or Eosin Y as references.

[6] = actinometer value of SAPYR, excitation at 355 nm, ref [27]; cited from earlier work
[7] = Photochemical stability under blue light monitored by 1H NMR; format: physicochemical; details: D2O, irradiation at 470 nm (3.5 mW.cm^-2) for 24h, under oxygen or Argon
Protocol: Photochemical stability: In an NMR tube, a solution of dyes 1a-c or SAPYR in D2O ([C] = 17.5 mmol/L) was irradiated at 470 nm (3.5 mW.cm^-2) under oxygen or Argon atmosphere (the gas was bublled solution was oxygenated or degassed by bubbling through the solution for 5 minutes and put under gas atmosphere). 1H NMR spectra were recorded after 24h irradiation time for each sample.

[8] = CIP76, S.a, dark (D), read-out: MBC
[9] = CIP76, S.a, dark (D), read-out: MIC
[10] = CIP76, light or radiation study, S.a, light (L), LED white light, total fluence 25 J/cm^2, read-out: MBC
[11] = CIP76, light or radiation study, S.a, light (L), LED white light, total fluence 25 J/cm^2, read-out: MIC
[12] = CIP76, light or radiation study, P.a, light (L), LED white light, total fluence 25 J/cm^2, read-out: MBC
[13] = CIP76, light or radiation study, P.a, light (L), LED white light, total fluence 25 J/cm^2, read-out: MIC
[14] = CIP76, P.a, dark (D), read-out: MBC
[15] = CIP76, P.a, dark (D), read-out: MIC
[16] = D2O (470 nm), Eosin Y as actinometer
[17] = D2O, SAPYR as actinometer, excitation at 355 nm
[18] = DMSO, SAPYR as actinometer, excitation at 355 nm
[19] = MeOH, SAPYR as actinometer, excitation at 355 nm
[20] = CIP76, light or radiation study

Row | SMILES | MBC [1, 8] | MIC [1, 9] | MBC [1, 10] | MIC [1, 11] | MBC [2, 12] | MIC [2, 13] | MBC [2, 14] | MIC [2, 15] | ΦΔ [3] | TF (singlet lifetime) ([4]; DMSO) | Δλ (Stokes shift) ([4]; DMSO) | λabs ([4]; DMSO) | ΦF (fluorescence quantum yield) ([4]; DMSO) | ε ([4]; DMSO) | λmax(em) ([4]; DMSO) | TF (singlet lifetime) ([4]; H2O) | Δλ (Stokes shift) ([4]; H2O) | λabs ([4]; H2O) | ΦF (fluorescence quantum yield) ([4]; H2O) | ε ([4]; H2O) | also measured
1 | COc1ccc2c3c(cc(CN(CCO)CCO)c(-c4ccccc4)c13)C(=O)C=C2.Cl [1c, 8-((bis(2-hydroxyethyl)amino)methyl)-6-methoxy-7-phenyl-1H-phenalen-1-one chloride] | > 200 µM | > 200 µM | 41.7 µM | 41.7 µM | 41.7 µM | 33 µM | > 200 µM | > 200 µM | 0.08 | 5.38 ns | 92 nm | 441 nm | 0.071 | 11984 M⁻¹ cm⁻¹ | 533 nm | 7.39 ns | 92 nm | 459 nm | 0.217 | 10053 M⁻¹ cm⁻¹ | λmax(em) ([4]; H2O): 551 nm; TF (singlet lifetime) ([4]; MeOH): 8.24 ns; Δλ (Stokes shift) ([4]; MeOH): 96 nm; λabs ([4]; MeOH): 446 nm; ΦF (fluorescence quantum yield) ([4]; MeOH): 0.233; ε ([4]; MeOH): 12256 M⁻¹ cm⁻¹; λmax(em) ([4]; MeOH): 542 nm; ΦΔ [5, 16]: 0.09; ΦΔ [5, 17]: 0.06; ΦΔ [5, 18]: 0.91; ΦΔ [5, 19]: 0.15
2 | COc1ccc2c3c(cc(C[n+]4ccccc4)c(-c4ccccc4)c13)C(=O)C=C2.[Cl-] [1b, 1-((6-methoxy-1-oxo-7-phenyl-1H-phenalen-8-yl)methyl)pyridin-1-ium chloride] | > 200 µM | > 200 µM | 67 µM | 50 µM | > 200 µM | > 200 µM | > 200 µM | > 200 µM | 0.15 | 6.24 ns | 91 nm | 444 nm | 0.067 | 10472 M⁻¹ cm⁻¹ | 535 nm | 7.15 ns | 88 nm | 463 nm | 0.192 | 9259 M⁻¹ cm⁻¹ | λmax(em) ([4]; H2O): 551 nm; TF (singlet lifetime) ([4]; MeOH): 7.65 ns; Δλ (Stokes shift) ([4]; MeOH): 95 nm; λabs ([4]; MeOH): 447 nm; ΦF (fluorescence quantum yield) ([4]; MeOH): 0.209; ε ([4]; MeOH): 9344 M⁻¹ cm⁻¹; λmax(em) ([4]; MeOH): 542 nm; ΦΔ [5, 16]: 0.11; ΦΔ [5, 17]: 0.06; ΦΔ [5, 18]: 0.63; ΦΔ [5, 19]: 0.12
3 | COc1ccc2c3c(cc(C[N+](C)(C)Cc4ccccc4)c(-c4ccccc4)c13)C(=O)C=C2.[Cl-] [1a, N-benzyl-1-(6-methoxy-1-oxo-7-phenyl-1H-phenalen-8-yl)-N,N-dimethylmethanaminium chloride] | > 200 µM | 167 µM | 133 µM | 50 µM | > 200 µM | > 200 µM | > 200 µM | > 200 µM | 0.09 | 6.04 ns | 92 nm | 441 nm | 0.069 | 11426 M⁻¹ cm⁻¹ | 533 nm | 7.65 ns | 90 nm | 459 nm | 0.241 | 9239 M⁻¹ cm⁻¹ | λmax(em) ([4]; H2O): 549 nm; TF (singlet lifetime) ([4]; MeOH): 8.15 ns; Δλ (Stokes shift) ([4]; MeOH): 95 nm; λabs ([4]; MeOH): 447 nm; ΦF (fluorescence quantum yield) ([4]; MeOH): 0.221; ε ([4]; MeOH): 9363 M⁻¹ cm⁻¹; λmax(em) ([4]; MeOH): 542 nm; ΦΔ [5, 16]: 0.12; ΦΔ [5, 17]: 0.06; ΦΔ [5, 18]: 0.79; ΦΔ [5, 19]: 0.10
4 | O=C1C(C[n+]2ccccc2)=Cc2cccc3cccc1c23 [SAPYR, reference compound] | – | – | – | – | – | – | – | – | – | – | – | – | – | – | – | – | – | – | – | – | ΦΔ [6]: 1.02; MBC [1, 20]: 167 µM; MIC [1, 20]: 83.3 µM; MBC [2, 20]: > 200 µM; MIC [2, 20]: > 200 µM; photodynamic effects ([2]; illumination under white light): did not exhibit any photodynamic effects; photochemical stability [7]: complete decomposition
